# Data taken from ChEMBL document CHEMBL4177767, “Discovery of N2-(4-Amino-cyclohexyl)-9-cyclopentyl- N6-(4-morpholin-4-ylmethyl-phenyl)- 9H-purine-2,6-diamine as a Potent FLT3 Kinase Inhibitor for Acute Myeloid Leukemia with FLT3 Mutations” (J Med Chem, 2018).
# Experiments:
# K562 = assay: cells; conditions: Homo sapiens, K562, 72 h
# MV4-11 = assay: Growth inhibition of human MV4-11 cells after 72 hrs by calcein AM dye-based fluorescence assay; format: functional; conditions: MV4-11, 72 h
# [1] = target: Receptor-type tyrosine-protein kinase FLT3 (Homo sapiens, UniProt P36888, ITD); assay: biochemical; format: cell-based, Sf9
# Description: Inhibition of N-terminal GST/His6-fused recombinant human FLT3 (R571 to S993 residues) ITD mutant expressed in Sf9 insect cells using poly (Ala,Glu,Lys,Tyr) 6:2:5:1 hydrobromide as substrate in presence of [gamma-33P]ATP
# THP-1 = assay: cells; conditions: Homo sapiens, THP-1, 72 h
# HCC827 = assay: cells; conditions: Homo sapiens, HCC827, 72 h
# in vitro [2] = conditions: human, MRC5 cells
# [3] = target: T1, Receptor-type tyrosine-protein kinase FLT3 (Homo sapiens, UniProt P36888); assay: biochemical; format: cell-based, Sf9
# T1 sequence (P36888 whole entry): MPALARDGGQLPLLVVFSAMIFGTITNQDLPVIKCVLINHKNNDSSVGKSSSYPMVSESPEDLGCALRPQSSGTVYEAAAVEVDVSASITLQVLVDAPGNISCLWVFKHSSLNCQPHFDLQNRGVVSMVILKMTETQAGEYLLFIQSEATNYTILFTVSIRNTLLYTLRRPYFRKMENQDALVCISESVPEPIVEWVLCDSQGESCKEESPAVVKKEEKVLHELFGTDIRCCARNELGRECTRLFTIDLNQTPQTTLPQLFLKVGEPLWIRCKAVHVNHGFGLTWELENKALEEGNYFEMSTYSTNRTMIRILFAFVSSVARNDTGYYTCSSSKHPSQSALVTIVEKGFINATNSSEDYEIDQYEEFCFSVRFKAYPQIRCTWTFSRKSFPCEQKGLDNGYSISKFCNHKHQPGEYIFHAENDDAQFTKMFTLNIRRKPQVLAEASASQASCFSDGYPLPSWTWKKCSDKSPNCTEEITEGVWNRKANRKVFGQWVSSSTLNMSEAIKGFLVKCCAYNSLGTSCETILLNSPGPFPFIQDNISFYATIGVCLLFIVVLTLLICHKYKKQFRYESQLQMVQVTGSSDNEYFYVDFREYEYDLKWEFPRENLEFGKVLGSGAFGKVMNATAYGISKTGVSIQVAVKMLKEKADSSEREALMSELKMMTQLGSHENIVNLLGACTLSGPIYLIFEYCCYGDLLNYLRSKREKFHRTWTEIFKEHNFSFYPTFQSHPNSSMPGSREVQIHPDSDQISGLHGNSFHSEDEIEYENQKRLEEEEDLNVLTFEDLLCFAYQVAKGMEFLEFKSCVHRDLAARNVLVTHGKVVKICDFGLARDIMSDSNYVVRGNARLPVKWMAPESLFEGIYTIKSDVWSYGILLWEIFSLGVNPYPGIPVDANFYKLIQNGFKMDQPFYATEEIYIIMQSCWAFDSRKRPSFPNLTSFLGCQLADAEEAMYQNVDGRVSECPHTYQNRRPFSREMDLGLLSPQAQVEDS
# Description: Inhibition of N-terminal GST/His6-fused recombinant wild type human FLT3 (R571 to S993 residues) expressed in Sf9 insect cells using poly (Ala,Glu,Lys,Tyr) 6:2:5:1 hydrobromide as substrate in presence of [gamma-33P]ATP
# in vitro [4] = conditions: human, BJ cells
# Kasumi 1 = assay: cells; conditions: Homo sapiens, Kasumi 1, 72 h
# U-937 = assay: cells; conditions: Homo sapiens, U-937, 72 h
# MOLM-13 = assay: cells; conditions: Homo sapiens, MOLM-13, 72 h
# in vitro [5] = conditions: human, HUVEC
# MCF7 = assay: cells; conditions: Homo sapiens, MCF7, 72 h
# [6] = target: Receptor-type tyrosine-protein kinase FLT3 (Homo sapiens, UniProt P36888, D835Y); assay: biochemical; format: cell-based, Sf9
# Description: Inhibition of N-terminal GST/His6-fused recombinant human FLT3 (R571 to S993 residues) D835Y mutant expressed in Sf9 insect cells using poly (Ala,Glu,Lys,Tyr) 6:2:5:1 hydrobromide as substrate in presence of [gamma-33P]ATP
Compound,GI50 (K562),GI50 (MV4-11),IC50 [1],GI50 (THP-1),GI50 (HCC827),GI50 at 72 h (in vitro [2]),IC50 [3],GI50 at 72 h (in vitro [4]),GI50 (Kasumi 1),GI50 (U-937),GI50 (MOLM-13),GI50 at 72 h (in vitro [5]),GI50 (MCF7),IC50 [6]
CN1CCN(c2nc(Nc3ccc(Br)cc3)c3ncn(Cc4ccccc4)c3n2)CC1,3800 nM,> 4000 nM,> 20000 nM,–,–,–,–,–,–,–,–,–,–,–
OCCCNc1nc(Nc2ccc(CN3CCOCC3)cc2)c2ncn(C3CCCC3)c2n1,2350 nM,157 nM,47 nM,–,–,–,–,–,–,–,–,–,–,–
c1cc(Nc2nc(N3CCCCC3)nc3c2ncn3C2CCCC2)ccc1CN1CCOCC1,11000 nM,701 nM,50 nM,–,–,–,–,–,–,–,–,–,–,–
N[C@H]1CC[C@H](Nc2nc(Nc3ccc(N4CCOCC4)nc3)c3ncn(C4CCCC4)c3n2)CC1,1300 nM,4 nM,4 nM,–,–,–,–,–,–,–,–,–,–,–
N[C@H]1CC[C@H](Nc2nc(Nc3ccc(N4CCOCC4)cc3)c3ncn(C4CCCC4)c3n2)CC1,965 nM,2 nM,2 nM,1160 nM,521 nM,23300 nM,21 nM,12200 nM,816 nM,1570 nM,4 nM,4530 nM,320 nM,7 nM
OCCCCNc1nc(Nc2ccc(CN3CCOCC3)cc2)c2ncn(C3CCCC3)c2n1,1450 nM,83 nM,18 nM,–,–,–,–,–,–,–,–,–,–,–
CC(O)CNc1nc(Nc2ccc(Br)cc2)c2ncn(C3CCCCO3)c2n1 (configuration not stated),27900 nM,2430 nM,1140 nM,–,–,–,–,–,–,–,–,–,–,–
N[C@H]1CC[C@H](Nc2nc(Nc3ccc(N4CCCC4)cc3)c3ncn(C4CCCC4)c3n2)CC1,940 nM,18 nM,3 nM,3110 nM,1070 nM,14000 nM,21 nM,15900 nM,569 nM,3170 nM,24 nM,12100 nM,487 nM,11 nM
NCCCCNc1nc(Nc2ccc(CN3CCOCC3)cc2)c2ncn(C3CCCC3)c2n1,2100 nM,11 nM,1 nM,3740 nM,1660 nM,3880 nM,–,10400 nM,2240 nM,1340 nM,19 nM,6260 nM,2100 nM,5 nM
c1cc(Nc2nc(N3CCOCC3)nc3c2ncn3C2CCCC2)ccc1CN1CCOCC1,4470 nM,61 nM,19 nM,–,–,–,–,–,–,–,–,–,–,–
COc1ccc(CNc2nc(Nc3ccc(CN4CCOCC4)cc3)c3ncn(C4CCCC4)c3n2)cc1,6690 nM,892 nM,209 nM,–,–,–,–,–,–,–,–,–,–,–
Brc1ccc(Nc2nc(N3CCOCC3)nc3c2ncn3Cc2ccccc2)cc1,> 12500 nM,> 4000 nM,> 20000 nM,–,–,–,–,–,–,–,–,–,–,–
CCN1CCN(c2ccc(Nc3nc(N[C@H]4CC[C@H](N)CC4)nc4c3ncn4C3CCCC3)cc2)CC1,2070 nM,1 nM,3 nM,514 nM,592 nM,22000 nM,10 nM,12900 nM,839 nM,605 nM,4 nM,4440 nM,1050 nM,2 nM
CC(O)CNc1nc(Nc2ccc(Br)cc2)c2ncn(C3CCCC3)c2n1 (configuration not stated),> 25000 nM,444 nM,628 nM,–,–,–,–,–,–,–,–,–,–,–
N[C@H]1CC[C@H](Nc2nc(Nc3ccc(Br)cc3)c3ncn(C4CCCC4)c3n2)CC1,670 nM,10 nM,4 nM,2280 nM,1280 nM,20600 nM,16 nM,14700 nM,481 nM,1800 nM,15 nM,10100 nM,520 nM,4 nM
Brc1ccc(Nc2nc(N3CCOCC3)nc3c2ncn3C2CCCCO2)cc1 (configuration not stated),3740 nM,3880 nM,1200 nM,–,–,–,–,–,–,–,–,–,–,–
CN1CCN(c2nc(Nc3ccc(CN4CCOCC4)cc3)c3ncn(C4CCCC4)c3n2)CC1,2740 nM,66 nM,53 nM,–,–,–,–,–,–,–,–,–,–,–

Compound,GI50 (K562),GI50 (MV4-11),IC50 [1],GI50 (THP-1),GI50 (HCC827),GI50 at 72 h (in vitro [2]),IC50 [3],GI50 at 72 h (in vitro [4]),GI50 (Kasumi 1),GI50 (U-937),GI50 (MOLM-13),GI50 at 72 h (in vitro [5]),GI50 (MCF7),IC50 [6]
c1ccc(CNc2nc(Nc3ccc(CN4CCOCC4)cc3)c3ncn(C4CCCC4)c3n2)cc1,3600 nM,196 nM,26 nM,> 10000 nM,> 5000 nM,23900 nM,83 nM,> 25000 nM,4760 nM,9790 nM,122 nM,10100 nM,8600 nM,624 nM
CC(C)n1cnc2c(Nc3ccc(Br)cc3)nc(N[C@H]3CC[C@H](N)CC3)nc21,1170 nM,7 nM,10 nM,–,–,–,–,–,–,–,–,–,–,–
c1cc(N2CCOCC2)ncc1Nc1nc(N2CCOCC2)nc2c1ncn2C1CCCC1,> 25000 nM,70 nM,71 nM,–,–,–,–,–,–,–,–,–,–,–
N[C@H]1CC[C@H](Nc2nc(Nc3ccc(Br)cc3)c3ncn(C4CCCCO4)c3n2)CC1 (some centres not stated),5170 nM,181 nM,70 nM,–,–,–,–,–,–,–,–,–,–,–
NCCCCCCNc1nc(Nc2ccc(CN3CCOCC3)cc2)c2ncn(C3CCCC3)c2n1,3790 nM,86 nM,10 nM,3590 nM,2250 nM,4090 nM,–,7260 nM,1020 nM,2920 nM,54 nM,10300 nM,5000 nM,69 nM
CC(O)CNc1nc(Nc2ccc(Br)cc2)c2ncn(C(C)C)c2n1 (configuration not stated),17800 nM,1500 nM,591 nM,–,–,–,–,–,–,–,–,–,–,–
OCCNc1nc(Nc2ccc(CN3CCOCC3)cc2)c2ncn(C3CCCC3)c2n1,2000 nM,110 nM,29 nM,–,–,–,–,–,–,–,–,–,–,–
C[C@@H](CO)CNc1nc(Nc2ccc(Br)cc2)c2ncn(C3CCCC3)c2n1,7630 nM,1310 nM,281 nM,–,–,–,–,–,–,–,–,–,–,–
CC(O)CNc1nc(Nc2ccc(Cl)cc2)c2ncn(C3CCCC3)c2n1 (configuration not stated),10900 nM,235 nM,1720 nM,–,–,–,–,–,–,–,–,–,–,–
CCN1CCN(c2ccc(Nc3nc(NCCCCN)nc4c3ncn4C3CCCC3)cc2)CC1,1340 nM,12 nM,1 nM,4360 nM,976 nM,10300 nM,–,15400 nM,2070 nM,3420 nM,4 nM,11400 nM,2150 nM,3 nM
N[C@H]1CC[C@H](Nc2nc(Nc3ccc(Br)cc3)c3ncn(Cc4ccccc4)c3n2)CC1,3070 nM,2290 nM,798 nM,–,–,–,–,–,–,–,–,–,–,–
NCCCCCNc1nc(Nc2ccc(CN3CCOCC3)cc2)c2ncn(C3CCCC3)c2n1,1530 nM,35 nM,5 nM,2420 nM,1120 nM,5880 nM,–,11200 nM,1280 nM,3630 nM,20 nM,14200 nM,2120 nM,65 nM
CN1CCN(c2nc(Nc3ccc(Br)cc3)c3ncn(C4CCCCO4)c3n2)CC1 (configuration not stated),7130 nM,3200 nM,4210 nM,–,–,–,–,–,–,–,–,–,–,–
N[C@H]1CC[C@H](Nc2nc(Nc3ccc(Cl)cc3)c3ncn(C4CCCC4)c3n2)CC1,840 nM,21 nM,5 nM,–,–,–,–,–,–,–,–,–,–,–
CC(O)CNc1nc(Nc2ccc(Br)cc2)c2ncn(Cc3ccccc3)c2n1 (configuration not stated),9450 nM,> 4000 nM,9850 nM,–,–,–,–,–,–,–,–,–,–,–
NCCCCNc1nc(Nc2ccc(N3CCOCC3)cc2)c2ncn(C3CCCC3)c2n1,3490 nM,11 nM,4 nM,6910 nM,1410 nM,7560 nM,–,13000 nM,2020 nM,4070 nM,17 nM,8060 nM,3260 nM,7 nM
N[C@H]1CC[C@H](Nc2nc(Nc3ccc(N4CCN(Cc5ccccc5)CC4)cc3)c3ncn(C4CCCC4)c3n2)CC1,700 nM,17 nM,6 nM,–,–,–,–,–,–,–,–,–,–,–
